Converted amounts (≈) assume the structure as drawn.
How the values were obtained:
[1] = system: K562/ADR (K562adr, drug-resistant chronic myeloid leukemia) cells; assay: MTT cell growth inhibition, leukemia cells; assay type: cell-based; details: Homo sapiens, K562/ADR, 72 h, MTT
Excerpt: (§1) Leukemia cell lines: leukemia cell lines: K562adr (drug-resistant, chronic myeloid leukemia, CML), NB4 (acute promyelocytic leukemia, AML), Kasumi-1 (acute myeloid leukemia M2 type, AML-M2), Jurkat (acute lymphoblastic leukemia, ALL), all of which were donated by Cancer Research Institute of Zhejiang University, China; and H9 (acute lymphoblastic leukemia, ALL), which was purchased from China Center for Type Culture Collection.
(§2) Reagents: The standard sample of fangchinoline (FAN) was purchased from Ci Yuan Biotechnology Co., Ltd., Shaanxi, China; and the 7-substituted fangchinoline derivatives according to the present invention.
(§3) 6000 well-growing leukemia cells were obtained and inoculated into wells of a 96-well cell culture plate. The culture medium was a RPMI-1640 cell culture medium containing 10% fetal bovine serum. After adding the 7-substituted fangchinoline derivatives of different concentrations the next day and mixing uniformly, the plate was placed in a carbon dioxide cell incubator (5% CO2) at 37° C. and incubating for 72 hours. Then the viable cell concentration was determined by the MTT method.

[2] = system: NB4 (acute promyelocytic leukemia) cells; assay: MTT cell growth inhibition, leukemia cells; assay type: cell-based; details: Homo sapiens, NB4, 72 h, MTT
Excerpt: as §1, §2, §3

[3] = system: RPMI 8226 (multiple myeloma) cells; assay: MTT cell growth inhibition, multiple myeloma cells; assay type: cell-based, human; details: Homo sapiens, RPMI 8226, 72 h, MTT
Method: Myeloma cell lines: RPMI8226 (multiple myeloma), purchased from Fuxiang Bio-tech Co. Ltd., Shanghai, China.
as §3, with “well-growing” for “well-growing leukemia”, “incubated” for “incubating”

[4] = system: CNE (nasopharyngeal carcinoma) cells; assay: MTT cell growth inhibition, solid tumor cells; assay type: cell-based, human; details: Homo sapiens, CNE, 72 h, MTT
Excerpt: (§4) Hep-2 (laryngeal carcinoma), A549 (human lung cancer), CaES-17 (esophageal cancer cell), PC-3 (prostate cancer), CNE (nasopharyngeal carcinoma cell) and SK-OV-3 (ovarian cancer cell), all of which were purchased from China Center For Type Culture Collection; RKO (human colon adenocarcinoma cell), MGC-803 (human gastric cancer cell), MG-63 (osteosarcoma), and U87-MG (malignant glioma cell), all of which were purchased from Fuxiang Bio-tech Co. Ltd., Shanghai, China; PANC-1 (pancreatic cancer), Becap37 (human breast cancer cell), Hela (human cervical cancer cell) and Hep G2 (human liver cancer cell), all of which were donated by Cancer Research Institute of Zhejiang University, China.
as §3, with “human solid tumor” for “leukemia”, “DMEM High Glucose” for “a RPMI-1640”, “serum. The plate was placed in a carbon dioxide cell incubator (5% CO2) at 37° C. and incubated for 24 hours.” for “serum.”, “added with” for “adding the”, “concentration” for “concentrations the next day”, “incubated” for “incubating”

[5] = system: CaEs-17 (esophageal cancer) cells; assay: MTT cell growth inhibition, solid tumor cells; assay type: cell-based, human; details: Homo sapiens, CaEs17, CaEs-17, 72 h, MTT
Excerpt: as §4
as §3, with “human solid tumor” for “leukemia”, “DMEM High Glucose” for “a RPMI-1640”, “serum. The plate was placed in a carbon dioxide cell incubator (5% CO2) at 37° C. and incubated for 24 hours.” for “serum.”, “added with” for “adding the”, “concentration” for “concentrations the next day”, “incubated” for “incubating”

[6] = system: PANC-1 (pancreatic cancer) cells; assay: MTT cell growth inhibition, solid tumor cells; assay type: cell-based, human; details: Homo sapiens, PANC-1, 72 h, MTT
Excerpt: as §4
as §3, with “human solid tumor” for “leukemia”, “DMEM High Glucose” for “a RPMI-1640”, “serum. The plate was placed in a carbon dioxide cell incubator (5% CO2) at 37° C. and incubated for 24 hours.” for “serum.”, “added with” for “adding the”, “concentration” for “concentrations the next day”, “incubated” for “incubating”

[7] = system: PC-3 (prostate cancer) cells; assay: MTT cell growth inhibition, solid tumor cells; assay type: cell-based, human; details: Homo sapiens, PC-3, 72 h, MTT
Excerpt: as §4
as §3, with “human solid tumor” for “leukemia”, “DMEM High Glucose” for “a RPMI-1640”, “serum. The plate was placed in a carbon dioxide cell incubator (5% CO2) at 37° C. and incubated for 24 hours.” for “serum.”, “added with” for “adding the”, “concentration” for “concentrations the next day”, “incubated” for “incubating”

[8] = system: SK-OV-3 (ovarian cancer) cells; assay: MTT cell growth inhibition, solid tumor cells; assay type: cell-based, human; details: Homo sapiens, SK-OV-3, 72 h, MTT
Excerpt: as §4
as §3, with “human solid tumor” for “leukemia”, “DMEM High Glucose” for “a RPMI-1640”, “serum. The plate was placed in a carbon dioxide cell incubator (5% CO2) at 37° C. and incubated for 24 hours.” for “serum.”, “added with” for “adding the”, “concentration” for “concentrations the next day”, “incubated” for “incubating”

[9] = system: A549 (human lung cancer) cells; assay: MTT cell growth inhibition, solid tumor cells; assay type: cell-based; details: Homo sapiens, A549, 72 h, MTT
Excerpt: as §4
as §3, with “human solid tumor” for “leukemia”, “DMEM High Glucose” for “a RPMI-1640”, “serum. The plate was placed in a carbon dioxide cell incubator (5% CO2) at 37° C. and incubated for 24 hours.” for “serum.”, “added with” for “adding the”, “concentration” for “concentrations the next day”, “incubated” for “incubating”

[10] = system: Becap-37 (human breast cancer) cells; assay: MTT cell growth inhibition, solid tumor cells; assay type: cell-based; details: Homo sapiens, Becap-37, 72 h, MTT
Excerpt: as §4
as §3, with “human solid tumor” for “leukemia”, “DMEM High Glucose” for “a RPMI-1640”, “serum. The plate was placed in a carbon dioxide cell incubator (5% CO2) at 37° C. and incubated for 24 hours.” for “serum.”, “added with” for “adding the”, “concentration” for “concentrations the next day”, “incubated” for “incubating”

[11] = system: Hela (human cervical cancer) cells; assay: MTT cell growth inhibition, solid tumor cells; assay type: cell-based; details: Homo sapiens, Hela, 72 h, MTT
Excerpt: as §4
as §3, with “human solid tumor” for “leukemia”, “DMEM High Glucose” for “a RPMI-1640”, “serum. The plate was placed in a carbon dioxide cell incubator (5% CO2) at 37° C. and incubated for 24 hours.” for “serum.”, “added with” for “adding the”, “concentration” for “concentrations the next day”, “incubated” for “incubating”

[12] = system: Hep G2 (human liver cancer) cells; assay: MTT cell growth inhibition, solid tumor cells; assay type: cell-based; details: Homo sapiens, HepG2, Hep G2, 72 h, MTT
Excerpt: as §4
as §3, with “human solid tumor” for “leukemia”, “DMEM High Glucose” for “a RPMI-1640”, “serum. The plate was placed in a carbon dioxide cell incubator (5% CO2) at 37° C. and incubated for 24 hours.” for “serum.”, “added with” for “adding the”, “concentration” for “concentrations the next day”, “incubated” for “incubating”

[13] = system: Hep-2 (laryngeal carcinoma) cells; assay: MTT cell growth inhibition, solid tumor cells; assay type: cell-based; details: Homo sapiens, Hep-2, 72 h, MTT
Excerpt: as §4
as §3, with “human solid tumor” for “leukemia”, “DMEM High Glucose” for “a RPMI-1640”, “serum. The plate was placed in a carbon dioxide cell incubator (5% CO2) at 37° C. and incubated for 24 hours.” for “serum.”, “added with” for “adding the”, “concentration” for “concentrations the next day”, “incubated” for “incubating”

[14] = system: MG-63 (osteosarcoma) cells; assay: MTT cell growth inhibition, solid tumor cells; assay type: cell-based; details: Homo sapiens, MG-63, 72 h, MTT
Excerpt: as §4
as §3, with “human solid tumor” for “leukemia”, “DMEM High Glucose” for “a RPMI-1640”, “serum. The plate was placed in a carbon dioxide cell incubator (5% CO2) at 37° C. and incubated for 24 hours.” for “serum.”, “added with” for “adding the”, “concentration” for “concentrations the next day”, “incubated” for “incubating”

[15] = system: MGC-803 (human gastric cancer) cells; assay: MTT cell growth inhibition, solid tumor cells; assay type: cell-based; details: MGC-803, 72 h, MTT
Excerpt: as §4
as §3, with “human solid tumor” for “leukemia”, “DMEM High Glucose” for “a RPMI-1640”, “serum. The plate was placed in a carbon dioxide cell incubator (5% CO2) at 37° C. and incubated for 24 hours.” for “serum.”, “added with” for “adding the”, “concentration” for “concentrations the next day”, “incubated” for “incubating”

[16] = system: RKO (human colon adenocarcinoma) cells; assay: MTT cell growth inhibition, solid tumor cells; assay type: cell-based; details: Homo sapiens, RKO, 72 h, MTT
Excerpt: as §4
as §3, with “human solid tumor” for “leukemia”, “DMEM High Glucose” for “a RPMI-1640”, “serum. The plate was placed in a carbon dioxide cell incubator (5% CO2) at 37° C. and incubated for 24 hours.” for “serum.”, “added with” for “adding the”, “concentration” for “concentrations the next day”, “incubated” for “incubating”

[17] = system: U87-MG (malignant glioma) cells; assay: MTT cell growth inhibition, solid tumor cells; assay type: cell-based; details: Homo sapiens, U-87 MG, U87-MG, 72 h, MTT
Excerpt: as §4
as §3, with “human solid tumor” for “leukemia”, “DMEM High Glucose” for “a RPMI-1640”, “serum. The plate was placed in a carbon dioxide cell incubator (5% CO2) at 37° C. and incubated for 24 hours.” for “serum.”, “added with” for “adding the”, “concentration” for “concentrations the next day”, “incubated” for “incubating”

tumor = assay: Antitumor activity compared with fangchinoline, overall statement; assay type: cell-based; details: tumor type not specified

Structure (SMILES): COc1ccc2cc1Oc1ccc(cc1)C[C@H]1c3cc(c(OC)cc3CCN1C)Oc1c(OS(=O)(=O)c3ccc(C)cc3)c(OC)cc3c1[C@H](C2)N(C)CC3 [BS-FC-102]
- IC50 ([1]; read-out: IC50): 0.4 µg/mL (≈ 0.524 µM)
- IC90 ([1]; read-out: IC90): 3.03 µg/mL (≈ 3.97 µM)
- IC50 ([2]; read-out: IC50): 0.38 µg/mL (≈ 0.498 µM)
- IC90 ([2]; read-out: IC90): 0.94 µg/mL (≈ 1.23 µM)
- IC50 ([3]; read-out: IC50): 0.14 µg/mL (≈ 0.184 µM)
- IC90 ([3]; read-out: IC90): 0.77 µg/mL (≈ 1.01 µM)
- IC50 ([4]; read-out: IC50): 3.5 µg/mL (≈ 4.59 µM)
- IC90 ([4]; read-out: IC90): 6.9 µg/mL (≈ 9.04 µM)
- IC50 ([5]; read-out: IC50): 2.47 µg/mL (≈ 3.24 µM)
- IC90 ([5]; read-out: IC90): 7.91 µg/mL (≈ 10.4 µM)
- IC50 ([6]; read-out: IC50): 3.16 µg/mL (≈ 4.14 µM)
- IC90 ([6]; read-out: IC90): 6.75 µg/mL (≈ 8.85 µM)
- IC50 ([7]; read-out: IC50): 3.17 µg/mL (≈ 4.16 µM)
- IC90 ([7]; read-out: IC90): 5.85 µg/mL (≈ 7.67 µM)
- IC50 ([8]; read-out: IC50): 1.92 µg/mL (≈ 2.52 µM)
- IC90 ([8]; read-out: IC90): 8.07 µg/mL (≈ 10.6 µM)
- IC50 ([9]; read-out: IC50): 2.41 µg/mL (≈ 3.16 µM)
- IC90 ([9]; read-out: IC90): 6.55 µg/mL (≈ 8.59 µM)
- IC50 ([10]; read-out: IC50): 2.49 µg/mL (≈ 3.26 µM)
- IC90 ([10]; read-out: IC90): 4 µg/mL (≈ 5.24 µM)
- IC50 ([11]; read-out: IC50): 1.44 µg/mL (≈ 1.89 µM)
- IC90 ([11]; read-out: IC90): 3.39 µg/mL (≈ 4.44 µM)
- IC50 ([12]; read-out: IC50): 1.56 µg/mL (≈ 2.04 µM)
- IC90 ([12]; read-out: IC90): 3.94 µg/mL (≈ 5.16 µM)
- IC50 ([13]; read-out: IC50): 3.99 µg/mL (≈ 5.23 µM)
- IC90 ([13]; read-out: IC90): 11.1 µg/mL (≈ 14.5 µM)
- IC50 ([14]; read-out: IC50): 3.18 µg/mL (≈ 4.17 µM)
- IC90 ([14]; read-out: IC90): 4.83 µg/mL (≈ 6.33 µM)
- IC50 ([15]; read-out: IC50): 1.71 µg/mL (≈ 2.24 µM)
- IC90 ([15]; read-out: IC90): 4.95 µg/mL (≈ 6.49 µM)
- IC50 ([16]; read-out: IC50): 1.44 µg/mL (≈ 1.89 µM)
- IC90 ([16]; read-out: IC90): 2.33 µg/mL (≈ 3.05 µM)
- IC50 ([17]; read-out: IC50): 1.79 µg/mL (≈ 2.35 µM)
- IC90 ([17]; read-out: IC90): 5.39 µg/mL (≈ 7.06 µM)
- antitumor activity compared with that of fangchinoline (tumor): significantly superior

Reference: patent US9328122B2, “7-substituted Hanfangichin B derivative, and preparation method and use thereof” (HANGZHOU BENSHENG PHARMACEUTICAL CO., LTD., priority 2012, dated 2016)
